Measured values as given in patent US10137239B2, “Systems and methods for monitoring time based photo active agent delivery or photo active marker presence” (Avedro, Inc., priority 2011, dated 2018).

Assay: Effect of a quenching agent on Riboflavin fluorescence in the eye after Riboflavin pre-soak
Design: species or system porcine
Conditions: 1% ascorbic acid drops for 5, 10, 15 min after 30 min pre-soak with 0.1% Riboflavin-5-phosphate in saline; control distilled water; FIGS. 14, 15A, 15B
Procedure: In an experimental setup, the Galilei Dual Scheimpflug Analyzer from Ziemer was used to perform experiments to detect the presence of Riboflavin in porcine corneas through a filter in front of one of the detectors in the Scheimpflug analyzer. The Dual Scheimpflug Analyzer has two detectors that rotate 180° taking several spokes (ranging from 16 to 60 spokes) of the corneal tissue illuminated by 470 nm light through a slit lamp aperture.
A Straw colored filter (Cinegel, Rosco) is used to filter the exciting light (i.e., the 470 nm light), while allowing the fluorescence (i.e., the 525 nm light) to reach the detector. This is illustrated by the graph shown in FIG. 11B, which illustrates the transmission spectrum for the Straw colored filter utilized.
However, as discussed above, several different substances can be utilized as quenching agents to inhibit the photo-activation of a cross-linking agent, or to degrade the cross-linking agent such that it is no longer photo-active. […] After the pre-soak, the eye was placed in front of the Scheimpflug analyzer and another image (or series of images) was captured to determine the distribution of Riboflavin based on the detected pattern of fluorescence within the cornea. […]
To analyze the effects described above, images from the Scheimpflug image capture system were exported and analyzed. […]

For `O=C1O[C@H]([C@@H](O)CO)C(O)=C1O` [ascorbic acid], the “maximum fluorescence intensity observed with the Scheimpflug imager” value was “considerably decreases the maximum fluorescence intensity”.
